# Results taken from ChEMBL document CHEMBL1137587, “MCH-R1 antagonists based on an arginine scaffold: SAR studies on the amino-terminus” (Bioorg Med Chem Lett, 2007).
# Target: Melanin-concentrating hormone receptor 1 (Homo sapiens, UniProt Q99705)
# Test: Functional antagonism of MCH-R1 expressed in HEK293 cells
# Format: cell-based
# Chain of Melanin-concentrating hormone receptor 1 (Q99705 whole entry): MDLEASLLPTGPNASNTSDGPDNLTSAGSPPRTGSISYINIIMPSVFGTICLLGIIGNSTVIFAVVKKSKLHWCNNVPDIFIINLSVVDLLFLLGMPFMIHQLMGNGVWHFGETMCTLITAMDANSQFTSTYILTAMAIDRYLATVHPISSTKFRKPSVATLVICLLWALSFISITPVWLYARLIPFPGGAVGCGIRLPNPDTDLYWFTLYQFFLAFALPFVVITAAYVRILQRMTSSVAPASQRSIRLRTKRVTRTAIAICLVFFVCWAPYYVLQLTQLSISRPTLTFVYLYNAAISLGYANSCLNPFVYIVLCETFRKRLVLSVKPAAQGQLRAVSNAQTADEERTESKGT
row,Structure (SMILES),IC50
1,N=C(N)NCCC[C@@H](NC(=O)c1cccc2ccccc12)C(=O)NCc1ccc(C(F)(F)F)cc1,1800 nM
2,N=C(N)NCCC[C@@H](NC(=O)c1ccnc2ccccc12)C(=O)NCc1ccc(C(F)(F)F)cc1,1030 nM
3,N=C(N)NCCC[C@@H](NC(=O)Cc1csc2ccccc12)C(=O)NCc1ccc(C(F)(F)F)cc1,1010 nM
4,COc1ccc2cc(C(=O)N[C@H](CCCNC(=N)N)C(=O)NCc3ccc(C(F)(F)F)cc3)ccc2c1,443 nM
5,N=C(N)NCCC[C@@H](NC(=O)C1c2ccccc2Cc2ccccc21)C(=O)NCc1ccc(C(F)(F)F)cc1,763 nM
6,N=C(N)NCCC[C@@H](NC(=O)c1cc2ccccc2cn1)C(=O)NCc1ccc(C(F)(F)F)cc1,1810 nM
7,N=C(N)NCCC[C@@H](NC(=O)Cc1cc2ccccc2[nH]1)C(=O)NCc1ccc(C(F)(F)F)cc1,512 nM
8,N=C(N)NCCC[C@@H](NC(=O)c1csc2ccccc12)C(=O)NCc1ccc(C(F)(F)F)cc1,952 nM
9,COc1cccc2cc(C(=O)N[C@H](CCCNC(=N)N)C(=O)NCc3ccc(C(F)(F)F)cc3)oc12,622 nM
10,N=C(N)NCCC[C@@H](NC(=O)c1ccc2ccccc2n1)C(=O)NCc1ccc(C(F)(F)F)cc1,904 nM

# Stronger by IC50, values ahead:
row,IC50,Structure (SMILES)
1,313 nM,N=C(N)NCCC[C@@H](NC(=O)c1cc2ccccc2o1)C(=O)NCc1ccc(C(F)(F)F)cc1
2,311 nM,N=C(N)NCCC[C@@H](NC(=O)c1ccc(F)c2ccccc12)C(=O)NCc1ccc(C(F)(F)F)cc1
3,243 nM,N=C(N)NCCC[C@@H](NC(=O)Cc1cccc2ccccc12)C(=O)NCc1ccc(C(F)(F)F)cc1
4,212 nM,N=C(N)NCCC[C@@H](NC(=O)c1ccc2ccccc2c1)C(=O)NCc1ccc(C(F)(F)F)cc1
5,112 nM,N=C(N)NCCC[C@@H](NC(=O)C(c1ccccc1)c1ccccc1)C(=O)NCc1ccc(C(F)(F)F)cc1
6,96 nM,N=C(N)NCCC[C@@H](NC(=O)c1cnc2ccccc2c1)C(=O)NCc1ccc(C(F)(F)F)cc1
7,78 nM,COc1ccc2[nH]c(C(=O)N[C@H](CCCNC(=N)N)C(=O)NCc3ccc(C(F)(F)F)cc3)cc2c1
8,45 nM,N=C(N)NCCC[C@@H](NC(=O)c1cc2ccccc2s1)C(=O)NCc1ccc(C(F)(F)F)cc1
9,25 nM,N=C(N)NCCC[C@@H](NC(=O)c1cc2cc(F)ccc2[nH]1)C(=O)NCc1ccc(C(F)(F)F)cc1
10,20 nM,N=C(N)NCCC[C@@H](NC(=O)c1cc2ccccc2[nH]1)C(=O)NCc1ccc(C(F)(F)F)cc1
11,5 nM,N=C(N)NCCC[C@@H](NC(=O)C1c2ccccc2-c2ccccc21)C(=O)NCc1ccc(C(F)(F)F)cc1
12,4 nM,N=C(N)NCCC[C@@H](NC(=O)C1c2ccccc2Oc2ccccc21)C(=O)NCc1ccc(C(F)(F)F)cc1
